Assays:
Experiment in all cases: relative viability (nuclei count vs DMSO), 5 days (fraction); higher = more cells survive
Carboplatin + Bortezomib = compound: C1CC(C1)(C(=O)O)C(=O)O.[NH2-].[NH2-].[Pt+2] [Carboplatin] + CC(C)C[C@H](NC(=O)[C@H](Cc1ccccc1)NC(=O)c1cnccn1)B(O)O [Bortezomib] (partner 0.002 µM)
Procedure, shortened: (§1)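 Lung cancer cell lines were seeded in 1536-well plates and dosed by pin tool the next day, with either a single drug or a fixed anchor-drug dose combined with five library-drug doses (not always all listed) spaced in √10 steps. Five days later, one step fixed the cells and stained their nuclei (final 0.05% Triton X-100, 1% formaldehyde, 1 ug/ml Hoechst), and nuclei were counted on 4× images. Relative viability is the nuclei count in treated wells divided by the count in vehicle wells, and each value is the median of duplicate plates.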

GSK126 + Bortezomib = compound: CC[C@H](C)N1C=C(C2=C(C=C(C=C21)C3=CN=C(C=C3)N4CCNCC4)C(=O)NCC5=C(C=C(NC5=O)C)C)C [GSK126] + CC(C)C[C@H](NC(=O)[C@H](Cc1ccccc1)NC(=O)c1cnccn1)B(O)O [Bortezomib] (partner 0.002 µM)
Procedure, shortened: as §1

GSK126 + Crizotinib = compound: CC[C@H](C)N1C=C(C2=C(C=C(C=C21)C3=CN=C(C=C3)N4CCNCC4)C(=O)NCC5=C(C=C(NC5=O)C)C)C [GSK126] + C[C@@H](Oc1cc(-c2cnn(C3CCNCC3)c2)cnc1N)c1c(Cl)ccc(F)c1Cl [Crizotinib] (partner 1 µM)
Procedure, shortened: as §1

GSK126 + Dasatinib = compound: CC[C@H](C)N1C=C(C2=C(C=C(C=C21)C3=CN=C(C=C3)N4CCNCC4)C(=O)NCC5=C(C=C(NC5=O)C)C)C [GSK126] + Cc1nc(Nc2ncc(C(=O)Nc3c(C)cccc3Cl)s2)cc(N2CCN(CCO)CC2)n1 [Dasatinib] (partner 0.075 µM)
Procedure, shortened: as §1

| Cell Line | relative viability (Carboplatin + Bortezomib; first compound 0.08 µM) | relative viability (Carboplatin + Bortezomib; first compound 0.253 µM) | relative viability (Carboplatin + Bortezomib; first compound 0.8 µM) | relative viability (Carboplatin + Bortezomib; first compound 2.53 µM) | relative viability (Carboplatin + Bortezomib; first compound 8 µM) | relative viability (GSK126 + Bortezomib; first compound 0.08 µM) | relative viability (GSK126 + Bortezomib; first compound 0.253 µM) | relative viability (GSK126 + Bortezomib; first compound 0.8 µM) | relative viability (GSK126 + Bortezomib; first compound 2.53 µM) | relative viability (GSK126 + Bortezomib; first compound 8 µM) | relative viability (GSK126 + Crizotinib; first compound 0.08 µM) | relative viability (GSK126 + Crizotinib; first compound 0.253 µM) | relative viability (GSK126 + Crizotinib; first compound 0.8 µM) | relative viability (GSK126 + Crizotinib; first compound 2.53 µM) | relative viability (GSK126 + Crizotinib; first compound 8 µM) | relative viability (GSK126 + Dasatinib; first compound 0.08 µM) | relative viability (GSK126 + Dasatinib; first compound 0.253 µM) | relative viability (GSK126 + Dasatinib; first compound 0.8 µM) | relative viability (GSK126 + Dasatinib; first compound 2.53 µM) | relative viability (GSK126 + Dasatinib; first compound 8 µM) |
| --- | --- | --- | --- | --- | --- | --- | --- | --- | --- | --- | --- | --- | --- | --- | --- | --- | --- | --- | --- | --- |
| NCI-H322M | 1.26 | 1.23 | 1.2 | 1.22 | 1.14 | 1.12 | 1.26 | 1.27 | 1.25 | 1.26 | 0.965 | 0.887 | 0.833 | 1.03 | 0.873 | 0.247 | 0.252 | 0.266 | 0.278 | 0.27 |
| NCI-H2126 | 1.14 | 1.14 | 1.15 | 1.15 | 1.04 | 1.09 | 1.19 | 1.12 | 1.08 | 1.1 | 1.07 | 1.04 | 1.05 | 0.992 | 0.987 | 0.656 | 0.661 | 0.644 | 0.671 | 0.494 |
| NCI-H596 | 1.21 | 1.27 | 0.989 | 0.886 | 0.73 | 1.09 | 0.982 |  | 1.14 | 0.731 | 1.04 | 0.98 | 0.863 | 1.06 | 0.891 | 0.692 | 0.537 | 0.633 | 0.887 | 0.594 |
| LU99A | 1.01 | 1.23 | 1.04 | 0.968 | 0.757 | 1.13 | 1.08 | 1.19 | 1.15 | 1.12 | 0.649 | 0.545 | 0.537 | 0.543 | 0.525 | 0.648 | 0.467 | 0.718 | 0.526 | 0.568 |
| NCI-H1666 | 0.842 | 0.776 | 0.789 | 0.774 | 0.724 | 0.826 | 0.962 | 0.814 | 0.808 | 1.01 | 1.33 | 0.838 | 0.938 | 1.04 | 1.23 | 0.675 | 0.586 | 0.579 | 0.616 | 0.656 |
| NCI-H520 | 0.611 | 0.609 | 0.767 | 0.599 | 0.523 | 0.745 | 0.709 | 0.571 | 0.522 | 0.754 | 0.885 | 0.62 | 0.644 | 0.747 | 0.642 | 0.184 | 0.172 | 0.185 | 0.19 | 0.238 |

From the supplement of paper PMC10307832
